Assay results: patent publication US9284271B2, “Compounds for the treatment of neurodegenerative diseases” (Katholieke Universiteit Leuven, K.U. Leuven R&D, priority 2010, dated 2016)

Tested on: M17-TAU P301L cells
Assay: Tau-induced toxicity experiment: LDH leakage of retinoic acid incubated M17-TAU P301L cells
Assay type: cell-based
Details: Homo sapiens, Neuroblastoma cell, 168 h; reduction of LDH activity of retinoic acid incubated M17-TAU P301L neuroblastoma cells; 7 days incubation; Promega Cytotox 96 assay
From the text: A TAU expression plasmid was constructed by sub-cloning the cDNA of human TAU-P301L (encoding for TAU with proline 301 substituted by a leucine residue) into mammalian expression vector pcDNA3.1 resulting in plasmid pcDNA3.1-TAU P301L. Plasmids pcDNA3.1 and pcDNA3.1-TAU P301L were transfected to human neuroblastoma cells ([…]; ATCC No. CRL-2267) and independent clonal lines with the plasmids stably integrated into the genome were selected. […] Expression of the TAU P301L genes in the cell lines was confirmed by Western analysis.
In degenerated or dead cells lactate dehydrogenase (LDH) is leaked out of the cells into the extracellular environment due to a loss of plasma-membrane integrity. This principle was used to determine cytotoxicity by quantifying the level of leaked LDH into the growth medium.
The detailed method for determining TAU cytotoxicity was as follows: From appropriate precultures of M17-3.1 and M17-TAU(P301L) cells were seeded at 2500 cells/cm2 in Optimem Reduced Serum without phenol red (Gibco, Cat. 31985-047) supplemented with 1% fetal calf serum, 1 mM sodium pyruvate, 1× non-essential amino acids, 500 μg/ml G418 0.5× antibiotic/antimycotic. After 3 h of incubation at 37° C./5% CO2 1 volume of Optimem Reduced Serum (same as described above; except without fetal calf serum) supplemented with 2.5 μM retinoic acid (RA) was added. The cells were further incubated for 7 days. Subsequently, LDH activity was determined using Promega Cytotox 96 Non-Radioactive cytotoxicity assay, (Cat. G1780) according the supplier's instructions.
The M17-TAU P301L cell line made it possible to assess the ability of novel compounds to counteract TAU cytotoxicity. […] These measurements were used to calculate EC50 values of table 2.
Exemplary compounds of the present invention are shown in table 2, with their chemical name and their EC50 value (expressed in nM) as determined from example 75 in the Tau-induced toxicity experiment.

| SMILES | EC50 [nM] |
| --- | --- |
| O=C(NCCc1c[nH]c2ccc(Cl)cc12)c1ccccc1-c1ccccc1Cl [Cpd054, 2′-chloro-N-(2-(5-chloro-1H-indol-3-yl)ethyl)biphenyl-2-carboxamide] | 170 |
| O=C(NCCc1c[nH]c2ccc(Cl)cc12)c1cccc(-c2ccccc2Cl)c1 [Cpd055, 2′-chloro-N-(2-(5-chloro-1H-indol-3-yl)ethyl)biphenyl-3-carboxamide] | 158 |
| O=C(NCCc1c[nH]c2ccc(Cl)cc12)c1ccccc1-c1cccc(Cl)c1 [Cpd057, 3′-chloro-N-(2-(5-chloro-1H-indol-3-yl)ethyl)biphenyl-2-carboxamide] | 159 |
| O=C(NCCc1c[nH]c2ccc(Cl)cc12)c1cccc(-c2cccc(Cl)c2)c1 [Cpd058, 3′-chloro-N-(2-(5-chloro-1H-indol-3-yl)ethyl)biphenyl-3-carboxamide] | 186 |
| O=C(NCCc1c[nH]c2ccc(Cl)cc12)c1ccc(-c2cccc(Cl)c2)cc1 [Cpd059, 3′-chloro-N-(2-(5-chloro-1H-indol-3-yl)ethyl)biphenyl-4-carboxamide] | 130 |
| O=C(NCCc1c[nH]c2ccc(Cl)cc12)c1cccc(-c2ccc(Cl)cc2)c1 [Cpd060, 4′-chloro-N-(2-(5-chloro-1H-indol-3-yl)ethyl)biphenyl-3-carboxamide] | 159 |
| O=C(NCCc1c[nH]c2ccc(Cl)cc12)c1ccc(-c2ccc(Cl)cc2)cc1 [Cpd061, 4′-chloro-N-(2-(5-chloro-1H-indol-3-yl)ethyl)biphenyl-4-carboxamide] | 111 |
| O=C(NCCc1c[nH]c2ccc(Cl)cc12)c1ccccc1-c1ccc(Cl)cc1 [Cpd063, 4′-chloro-N-(2-(5-chloro-1H-indol-3-yl)ethyl)biphenyl-2-carboxamide] | 154 |
| O=C(NCCc1c[nH]c2ccc(Cl)cc12)c1ccccc1-c1cccc(C(F)(F)F)c1 [Cpd064, N-(2-(5-chloro-1H-indol-3-yl)ethyl)-3′-(trifluoromethyl)biphenyl-2-carboxamide] | 418 |
| O=C(NCCc1c[nH]c2ccc(Cl)cc12)c1cccc(-c2ccccc2C(F)(F)F)c1 [Cpd065, N-(2-(5-chloro-1H-indol-3-yl)ethyl)-2′-(trifluoromethyl)biphenyl-3-carboxamide] | 89 |
| O=C(NCCc1c[nH]c2ccc(Cl)cc12)c1ccc(-c2cccc(C(F)(F)F)c2)cc1 [Cpd066, N-(2-(5-chloro-1H-indol-3-yl)ethyl)-3′-(trifluoromethyl)biphenyl-4-carboxamide] | 92 |
| O=C(NCCc1c[nH]c2ccc(Cl)cc12)c1cccc(-c2ccc(C(F)(F)F)cc2)c1 [Cpd068, N-(2-(5-chloro-1H-indol-3-yl)ethyl)-4′-(trifluoromethyl)biphenyl-3-carboxamide] | 367 |
| Cc1cccc(C)c1-c1cccc(C(=O)NCCc2c[nH]c3ccc(Cl)cc23)c1 [Cpd070, N-(2-(5-chloro-1H-indol-3-yl)ethyl)-2′,6′-dimethylbiphenyl-3-carboxamide] | 606 |
| Cc1ccc(-c2ccccc2C(=O)NCCc2c[nH]c3ccc(Cl)cc23)cc1C [Cpd071, N-(2-(5-chloro-1H-indol-3-yl)ethyl)-3′,4′-dimethylbiphenyl-2-carboxamide] | 546 |
| O=C(NCCc1c[nH]c2ccc(Cl)cc12)c1ccc(-c2ccc(C(F)(F)F)cc2)cc1 [Cpd074, N-(2-(5-chloro-1H-indol-3-yl)ethyl)-4′-(trifluoromethyl)biphenyl-4-carboxamide] | 200 |
| O=C(NCCc1c[nH]c2ccc(Cl)cc12)c1ccc(-c2ccccc2)nn1 [Cpd075, N-(2-(5-chloro-1H-indol-3-yl)ethyl)-6-phenylpyridazine-3-carboxamide] | 81 |
